# Data: patent US20240335431A1, “1-H-PYRROLO[2,3-c]PYRIDINE COMPOUNDS” (Acerta Pharma B.V., priority 2023, published 2024)
# Where two headings read alike, the source gives them in different places.
# Legend:
# MOLM-13 cells = experiment: Proliferation assay, MOLM-13 (CellTiter-Glo, 7 days); type: cell-based, human
# How it was run: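 Cells were seeded at line-specific low densities for linear growth, exposed to 3.16-fold serial compound dilutions at 0.1% DMSO, and incubated 7 days at 37 °C, 5% CO2. Viability was read by CellTiter-Glo 2.0 luminescence; IC50 came from one-site fits of % inhibition, normalized between DMSO-treated cells (100%) and a day-0 plate (0%).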
# [1] = Human hepatocyte intrinsic clearance assay; type: in vitro ADME; details: human hepatocytes
# How it was run: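 Pooled 10-donor cryopreserved human hepatocytes in suspension (0.25×10^6 cells in 0.25 mL) incubated with test compound at […], 37° C. Samples taken 0.5–120 min and quenched in acetonitrile, parent remaining measured by LC-MS/MS. CLint ([…]) derived from slope of ln % remaining vs time.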
SMILES,"IC50 (MOLM-13 cells; Homo sapiens, MOLM-13, 168 h)",HH CLint [1],IC50 (MOLM-13 cells)
"CC(C)N(C(=O)c1cc(F)ccc1-n1cc(C(=O)C2CCN(C[C@H]3CC[C@H](NS(C)(=O)=O)CC3)CC2)c2ccncc21)C(C)C [Example 17, 5-Fluoro-N,N-diisopropyl-2-(3-(1-(((1r,4r)-4-(methylsulfonamido)cyclohexyl)-methyl)piperidine-4-carbonyl)-1H-pyrrolo[2,3-c]pyridin-1-yl)benzamide]",107 nM,1.2 μl/min/1E6,–
"C=C1C[C@@H]2CC[C@H]1[C@@H](C(=O)N1CCC(C(=O)c3cn(-c4ccc(F)cc4C(=O)N(C(C)C)C(C)C)c4cnccc34)CC1)N2 [Example 18, 5-Fluoro-N,N-diisopropyl-2-(3-(1-((1S,3S,4R)-5-methylene-2-azabicyclo[2.2.2]-octane-3-carbonyl)piperidine-4-carbonyl)-1H-pyrrolo[2,3-c]pyridin-1-yl)benzamide]",57 nM,1.6 μl/min/1E6,–
"CC(C)N(C(=O)c1cc(F)ccc1-n1cc(C(=O)C2CCN(C(=O)[C@H]3NC[C@@H]4C[C@@H]43)CC2)c2ccncc21)C(C)C [Example 19, 2-(3-(1-((1S,2S,5R)-3-Azabicyclo[3.1.0]hexane-2-carbonyl)piperidine-4-carbonyl)-1H-pyrrolo[2,3-c]pyridin-1-yl)-5-fluoro-N,N-diisopropylbenzamide]",34 nM,3.6 μl/min/1E6,–
"CC(C)N(C(=O)c1cc(F)ccc1-n1cc(C(=O)C2CCN(C(=O)[C@H]3NC4CCC3CC4)CC2)c2ccncc21)C(C)C [Example 20, (S)-2-(3-(1-(2-Azabicyclo[2.2.2]octane-3-carbonyl)piperidine-4-carbonyl)-1H-pyrrolo[2,3-c]pyridin-1-yl)-5-fluoro-N,N-diisopropylbenzamide]",40 nM,<1.0 μl/min/1E6,–
"CC(C)N(C(=O)c1cc(F)ccc1-n1cc(C(=O)C2CCN(C(=O)[C@H]3NC[C@@H]4CCC[C@@H]43)CC2)c2ccncc21)C(C)C [Example 21, 5-Fluoro-N,N-diisopropyl-2-(3-(1-((1S,3αR,6αS)-octahydrocyclopenta[c]pyrrole-1-carbonyl)piperidine-4-carbonyl)-1H-pyrrolo[2,3-c]pyridin-1-yl)benzamide]",34 nM,2.0 μl/min/1E6,–
"CC(C)N(C(=O)c1cc(F)ccc1-n1cc(C(=O)C2CCN(C(=O)[C@H]3N[C@H]4C[C@@H]3[C@@H](F)C4)CC2)c2ccncc21)C(C)C [Example 22, 5-Fluoro-2-(3-(1-((1S,3S,4S,5S)-5-fluoro-2-azabicyclo[2.2.1]heptane-3-carbonyl)piperidine-4-carbonyl)-1H-pyrrolo[2,3-c]pyridin-1-yl)-N,N-diisopropylbenzamide]",30 nM,<1.7 μl/min/1E6,–
"CC(C)N(C(=O)c1cc(F)ccc1-n1cc(C(=O)C2CCN(C(=O)[C@@H]3CCC4(CC4)N3)CC2)c2ccncc21)C(C)C [Example 24, (S)-2-(3-(1-(4-Azaspiro[2.4]heptane-5-carbonyl)piperidine-4-carbonyl)-1H-pyrrolo[2,3-c]pyridin-1-yl)-5-fluoro-N,N-diisopropylbenzamide]",32 nM,4.1 μl/min/1E6,–
"CC(C)N(C(=O)c1cc(F)ccc1-n1cc(C(=O)C2CCN(C(=O)[C@@H]3CC4(CC4)CN3)CC2)c2ccncc21)C(C)C [Example 26, (S)-2-(3-(1-(5-Azaspiro[2.4]heptane-6-carbonyl)piperidine-4-carbonyl)-1H-pyrrolo[2,3-c]pyridin-1-yl)-5-fluoro-N,N-diisopropylbenzamide]",103 nM,<1.0 μl/min/1E6,–
"CC(C)N(C(=O)c1cc(F)ccc1-n1cc(C(=O)C2CCN(C(=O)[C@@H]3CCC(C)(C)N3)CC2)c2ccncc21)C(C)C [Example 27, (S)-2-(3-(1-(5,5-Dimethylpyrrolidine-2-carbonyl)piperidine-4-carbonyl)-1H-pyrrolo[2,3-c]pyridin-1-yl)-5-fluoro-N,N-diisopropylbenzamide]",38 nM,<1.0 μl/min/1E6,–
"CCN(C(=O)c1cc(F)ccc1-n1cc(C(=O)C2CCN(C(=O)[C@H]3NC[C@@H]4C[C@@H]43)CC2)c2ccncc21)C(C)C [Example 28, 2-(3-(1-((1S,2S,5R)-3-Azabicyclo[3.1.0]hexane-2-carbonyl)piperidine-4-carbonyl)-1H-pyrrolo[2,3-c]pyridin-1-yl)-N-ethyl-5-fluoro-N-isopropylbenzamide]",39 nM,<1.0 μl/min/1E6,–
"CCN(C(=O)c1cc(F)ccc1-n1cc(C(=O)C2CCN(C(=O)[C@H]3N[C@@H]4CC[C@H]3C4)CC2)c2ccncc21)C(C)C [Example 31, 2-(3-(1-((1R,3S,4S)-2-Azabicyclo[2.2.1]heptane-3-carbonyl)piperidine-4-carbonyl)-1H-pyrrolo[2,3-c]pyridin-1-yl)-N-ethyl-5-fluoro-N-isopropylbenzamide]",38 nM,<1.0 μl/min/1E6,–
"CC(C)n1nccc1-c1cc(F)ccc1-n1cc(C(=O)C2CCN(C(=O)[C@H]3N[C@@H]4CC[C@H]3C4)CC2)c2ccncc21 [Example 36, (1-((1R,3S,4S)-2-Azabicyclo[2.2.1]heptane-3-carbonyl)piperidin-4-yl)(1-(4-fluoro-2-(1-isopropyl-1H-pyrazol-5-yl)phenyl)-1H-pyrrolo[2,3-c]pyridin-3-yl)methanone]",60 nM,<1.0 μl/min/1E6,–
"CC(C)c1ncncc1-c1cc(F)ccc1-n1cc(C(=O)C2CCN(C(=O)[C@H]3N[C@@H]4CC[C@H]3C4)CC2)c2ccncc21 [Example 37, (1-((1R,3S,4S)-2-Azabicyclo[2.2.1]heptane-3-carbonyl)piperidin-4-yl)(1-(4-fluoro-2-(4-isopropylpyrimidin-5-yl)phenyl)-1H-pyrrolo[2,3-c]pyridin-3-yl)methanone]",68 nM,<1.0 μl/min/1E6,–
"CC(C)c1ncccc1-c1cc(F)ccc1-n1cc(C(=O)C2CCN(C(=O)[C@H]3N[C@@H]4CC[C@H]3C4)CC2)c2ccncc21 [Example 38, (1-((1R,3S,4S)-2-Azabicyclo[2.2.1]heptane-3-carbonyl)piperidin-4-yl)(1-(4-fluoro-2-(2-isopropylpyridin-3-yl)phenyl)-1H-pyrrolo[2,3-c]pyridin-3-yl)methanone]",27 nM,<1.0 μl/min/1E6,–
"O=C(c1cn(-c2ccc(F)cc2-c2cncnc2C2CC2)c2cnccc12)C1CCN(C(=O)[C@H]2N[C@@H]3CC[C@H]2C3)CC1 [Example 40, (1-((1R,3S,4S)-2-Azabicyclo[2.2.1]heptane-3-carbonyl)piperidin-4-yl)(1-(2-(4-cyclopropylpyrimidin-5-yl)-4-fluorophenyl)-1H-pyrrolo[2,3-c]pyridin-3-yl)methanone]",61 nM,<1.0 μl/min/1E6,–
"CC(C)c1ccncc1-c1cc(F)ccc1-n1cc(C(=O)C2CCN(C(=O)[C@H]3N[C@@H]4CC[C@H]3C4)CC2)c2ccncc21 [Example 41, (1-((1R,3S,4S)-2-Azabicyclo[2.2.1]heptane-3-carbonyl)piperidin-4-yl)(1-(4-fluoro-2-(4-isopropylpyridin-3-yl)phenyl)-1H-pyrrolo[2,3-c]pyridin-3-yl)methanone]",42 nM,1.7 μl/min/1E6,–
"CC(C)c1ncsc1-c1cc(F)ccc1-n1cc(C(=O)C2CCN(C(=O)[C@H]3N[C@@H]4CC[C@H]3C4)CC2)c2ccncc21.O=CO [Example 42, (1-((1R,3S,4S)-2-Azabicyclo[2.2.1]heptane-3-carbonyl)piperidin-4-yl)(1-(4-fluoro-2-(4-isopropylthiazol-5-yl)phenyl)-1H-pyrrolo[2,3-c]pyridin-3-yl)methanone 1·formic acid]",40 nM,2.5 μl/min/1E6,–
"CCN(C(=O)c1cc(F)ccc1-n1c(C)c(C(=O)C2CCN(C(=O)[C@H]3N[C@@H]4CC[C@H]3C4)CC2)c2ccncc21)C(C)C [Example 46, 2-(3-(1-((1R,3S,4S)-2-Azabicyclo[2.2.1]heptane-3-carbonyl)piperidine-4-carbonyl)-2-methyl-1H-pyrrolo[2,3-c]pyridin-1-yl)-N-ethyl-5-fluoro-N-isopropylbenzamide]",52 nM,<1.0 μl/min/1E6,–
"CCN(C(=O)c1cc(F)ccc1-n1c(C)c(C(=O)C2CCN(C(=O)[C@H]3NC[C@@H]4C[C@@H]43)CC2)c2ccncc21)C(C)C [Example 47, 2-(3-(1-((1S,2S,5R)-3-Azabicyclo[3.1.0]hexane-2-carbonyl)piperidine-4-carbonyl)-2-methyl-1H-pyrrolo[2,3-c]pyridin-1-yl)-N-ethyl-5-fluoro-N-isopropylbenzamide]",–,2.1 μl/min/1E6,42 nM
"Cc1c(C(=O)C2CCN(C(=O)[C@H]3NC[C@@H]4C[C@@H]43)CC2)c2ccncc2n1-c1ccc(F)cc1-c1cnccc1C(C)C [Example 54, (1-((1S,2S,5R)-3-Azabicyclo[3.1.0]hexane-2-carbonyl)piperidin-4-yl)(1-(4-fluoro-2-(4-isopropylpyridin-3-yl)phenyl)-2-methyl-1H-pyrrolo[2,3-c]pyridin-3-yl)methanone]",49 nM,6.4 μl/min/1E6,–
